Data reported in US20260365670A1, “EGFR INHIBITORS AND USES THEREOF” (DIZAL (JIANGSU) PHARMACEUTICAL CO., LTD., priority 2022, published 2026).
Read-outs that look alike come from different tables or passages of the source.

What was measured:
PC-9 = experiment: Cell proliferation assay, PC-9 cells (CellTiter-Glo, 72 hours); format: cell-based; settings: PC9 cells, read-out: GI50 PC9
How it was run: (§1)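 Luminescent viable-cell counts were taken on a day 0 plate at dosing and again at endpoint. Proliferation was calculated as (sample − G0)/(DMSO − G0). Seeding was 5000 Ba/F3 or 500 PC-9 cells per well in RPMI1640, followed by overnight attachment and serial compound dilutions. The GI50 was fitted.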

EGFR wild type = biological target: T1, EGFR wild type (Homo sapiens, UniProt P00533); experiment: Inhibition of EGFR wild type biochemical enzymatic activity (HTRF); settings: 1 mM ATP
T1 construct: purchased Carna Bio
How it was run: (§2)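 In a buffer with 5 mM MgCl2, 1 mM MnCl2, 1 mM DTT and 0.01% CHAPS, enzyme turnover of 1 μM biotinylated TK substrate at 1 mM ATP is followed by HTRF after 1 h at room temperature. IC50 is obtained by a four-parameter fit.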

[1] = biological target: T2, EGFR[T790M/C797S/d746-750] (Homo sapiens, UniProt P00533, C797S/DEL746-750/T790M); experiment: Inhibition of EGFR[T790M/C797S/d746-750] biochemical enzymatic activity (HTRF)
T2 construct: purchased Carna Bio
How it was run: as §2

EGFR Exon19Del/T790M = biological target: T3, EGFR Exon19Del/T790M (Homo sapiens, UniProt P00533, DEL746-750/T790M); experiment: Inhibition of EGFR Exon19Del/T790M biochemical enzymatic activity (HTRF); settings: 1 mM ATP
T3 construct: purchased Carna Bio
How it was run: as §2

[2] = system: Ba/F3 cells expressing EGFR mutations; experiment: Cell proliferation assay, Ba/F3 cells expressing EGFR mutations (CellTiter-Glo, 72 hours); format: cell-based
How it was run: as §1

EGFR[T790M/C797S/L858R] = biological target: T4, EGFR[T790M/C797S/L858R] (Homo sapiens, UniProt P00533, C797S/L858R/T790M); experiment: Inhibition of EGFR[T790M/C797S/L858R] biochemical enzymatic activity (HTRF); settings: 1 mM ATP
T4 construct: purchased Carna Bio
How it was run: as §2

EGFR (d746-750 C797S) = biological target: T5, EGFR (d746-750 C797S) (Homo sapiens, UniProt P00533, C797S/DEL746-750); experiment: Inhibition of EGFR (d746-750 C797S) biochemical enzymatic activity (HTRF); settings: 1 mM ATP
T5 construct: purchased signalchem
How it was run: as §2

EGFR L858R/T790M = biological target: T6, EGFR L858R/T790M (Homo sapiens, UniProt P00533, L858R/T790M); experiment: Inhibition of EGFR L858R/T790M biochemical enzymatic activity (HTRF); settings: 1 mM ATP
T6 construct: purchased Carna Bio
How it was run: as §2

EGFR (C797S L858R) = biological target: T7, EGFR (C797S L858R) (Homo sapiens, UniProt P00533, C797S/L858R); experiment: Inhibition of EGFR (C797S L858R) biochemical enzymatic activity (HTRF); settings: 1 mM ATP
T7 construct: purchased signalchem
How it was run: as §2

EGFR L858R = biological target: T8, EGFR L858R (Homo sapiens, UniProt P00533, L858R); experiment: Inhibition of EGFR L858R biochemical enzymatic activity (HTRF); settings: 1 mM ATP
T8 construct: purchased Carna Bio
How it was run: as §2

EGFR Exon19Del = biological target: T9, EGFR Exon19Del (Homo sapiens, UniProt P00533, DEL746-750); experiment: Inhibition of EGFR Exon19Del biochemical enzymatic activity (HTRF); settings: read-out: IC50 @Del19
T9 construct: purchased Carna Bio
How it was run: as §2

A-431 = experiment: Cell proliferation assay, A-431 cells (GI50, Table 6); format: cell-based
[3] = EGFR wild type, 1 h at room temperature, read-out: IC50 @WT
[4] = EGFR[T790M/C797S/d746-750], 1 mM ATP, 1 h at room temperature, read-out: IC50 @T790M - C797S - Del19
[5] = EGFR Exon19Del/T790M, 1 h at room temperature, read-out: IC50 @Del19-T790M
[6] = BaF3 cells, EGFR DEL19 - C797S, read-out: GI50 DEL19 - C797S/BaF3
[7] = BaF3 cells, EGFR DEL19 - T790-C797S, read-out: GI50 DEL19 - T790-C797S/BaF3
[8] = BaF3 cells, EGFR L858R - C797S, read-out: GI50 L858R - C797S/BaF3
[9] = BaF3 cells, EGFR L858R - T790-C797S, read-out: GI50 L858R - T790-C797S/BaF3
[10] = BaF3 cells, EGFR L858R - T790M, read-out: GI50 L858R - T790M/BaF3
[11] = BaF3 cells, EGFR L858R, read-out: GI50 L858R/BaF3
[12] = EGFR DEL19 - T790M, read-out: GI50 DEL19 - T790M
[13] = EGFR[T790M/C797S/L858R], 1 h at room temperature, read-out: IC50 @T790M- C797S - L858R
[14] = EGFR (d746-750 C797S), 1 h at room temperature, read-out: IC50 @Del19-C797S
[15] = EGFR L858R/T790M, 1 h at room temperature, read-out: IC50 @L858R-T790M
[16] = EGFR (C797S L858R), 1 h at room temperature, read-out: IC50 @L858-C797S
[17] = 1 h at room temperature, read-out: IC50 @L858R
[18] = EGFR Exon19Del, 1 mM ATP, 1 h at room temperature
[19] = Mus musculus, BaF3, 72 h, BaF3 cells, EGFR DEL19 - C797S, read-out: GI50 DEL19 - C797S/BaF3
[20] = Mus musculus, BaF3, 72 h, BaF3 cells, EGFR DEL19 - T790-C797S, read-out: GI50 DEL19 - T790-C797S/BaF3
[21] = Mus musculus, BaF3, 72 h, BaF3 cells, EGFR L858R - C797S, read-out: GI50 L858R - C797S/BaF3
[22] = Mus musculus, BaF3, 72 h, BaF3 cells, EGFR L858R - T790-C797S, read-out: GI50 L858R - T790-C797S/BaF3
[23] = Mus musculus, BaF3, 72 h, BaF3 cells, EGFR L858R - T790M, read-out: GI50 L858R - T790M/BaF3
[24] = Mus musculus, BaF3, 72 h, BaF3 cells, EGFR L858R, read-out: GI50 L858R/BaF3
[25] = Mus musculus, BaF3, 72 h, EGFR DEL19 - T790M, read-out: GI50 DEL19 - T790M
[26] = Homo sapiens, A-431, A-431 cells

T7 sequence (P00533 25-1210 C797S/L858R): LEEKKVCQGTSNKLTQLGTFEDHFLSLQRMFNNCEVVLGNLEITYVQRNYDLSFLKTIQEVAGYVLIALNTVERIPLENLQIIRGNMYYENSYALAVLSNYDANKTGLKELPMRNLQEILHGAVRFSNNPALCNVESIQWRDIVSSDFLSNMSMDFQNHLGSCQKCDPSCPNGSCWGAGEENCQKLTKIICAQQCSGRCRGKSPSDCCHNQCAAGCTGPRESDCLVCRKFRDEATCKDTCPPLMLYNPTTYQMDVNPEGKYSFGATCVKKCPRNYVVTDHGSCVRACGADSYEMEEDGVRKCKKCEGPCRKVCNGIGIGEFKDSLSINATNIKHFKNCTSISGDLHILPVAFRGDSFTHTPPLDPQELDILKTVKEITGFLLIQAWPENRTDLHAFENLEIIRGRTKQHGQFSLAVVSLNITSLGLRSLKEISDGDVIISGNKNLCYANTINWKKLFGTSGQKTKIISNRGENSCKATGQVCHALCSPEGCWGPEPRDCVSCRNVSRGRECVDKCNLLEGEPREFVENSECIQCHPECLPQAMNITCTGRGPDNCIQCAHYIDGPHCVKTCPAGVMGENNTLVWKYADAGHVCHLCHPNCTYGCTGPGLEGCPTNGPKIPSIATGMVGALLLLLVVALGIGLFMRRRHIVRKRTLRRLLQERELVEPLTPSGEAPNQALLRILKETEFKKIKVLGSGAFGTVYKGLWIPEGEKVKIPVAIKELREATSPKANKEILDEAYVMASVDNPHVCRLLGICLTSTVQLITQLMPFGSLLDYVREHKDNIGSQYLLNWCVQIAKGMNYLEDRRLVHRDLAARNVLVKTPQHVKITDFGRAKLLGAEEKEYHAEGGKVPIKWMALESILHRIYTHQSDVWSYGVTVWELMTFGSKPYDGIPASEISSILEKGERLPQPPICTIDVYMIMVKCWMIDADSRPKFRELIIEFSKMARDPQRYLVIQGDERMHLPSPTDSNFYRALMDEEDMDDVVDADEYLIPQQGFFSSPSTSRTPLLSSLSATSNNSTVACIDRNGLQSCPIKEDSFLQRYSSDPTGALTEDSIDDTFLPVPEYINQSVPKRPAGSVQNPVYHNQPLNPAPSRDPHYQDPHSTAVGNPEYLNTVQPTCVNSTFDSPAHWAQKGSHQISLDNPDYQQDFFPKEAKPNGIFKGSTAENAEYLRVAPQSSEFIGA
T3 sequence (P00533 with tags, fused parts or gaps DEL746-750/T790M limits assumed): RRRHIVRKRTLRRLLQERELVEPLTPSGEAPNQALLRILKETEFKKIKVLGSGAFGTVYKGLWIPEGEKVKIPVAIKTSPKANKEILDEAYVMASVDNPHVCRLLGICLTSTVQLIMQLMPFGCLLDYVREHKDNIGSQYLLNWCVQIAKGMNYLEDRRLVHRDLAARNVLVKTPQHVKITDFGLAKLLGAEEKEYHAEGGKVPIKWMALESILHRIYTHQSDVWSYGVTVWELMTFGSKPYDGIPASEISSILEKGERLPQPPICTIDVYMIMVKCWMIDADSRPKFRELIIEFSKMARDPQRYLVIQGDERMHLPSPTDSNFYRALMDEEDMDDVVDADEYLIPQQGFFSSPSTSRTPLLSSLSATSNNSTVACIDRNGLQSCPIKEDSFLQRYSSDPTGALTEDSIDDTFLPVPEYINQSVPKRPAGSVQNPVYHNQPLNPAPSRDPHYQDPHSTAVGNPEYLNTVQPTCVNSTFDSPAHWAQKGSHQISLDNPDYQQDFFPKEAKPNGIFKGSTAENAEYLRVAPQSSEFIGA
T9 sequence (P00533 with tags, fused parts or gaps DEL746-750 limits assumed): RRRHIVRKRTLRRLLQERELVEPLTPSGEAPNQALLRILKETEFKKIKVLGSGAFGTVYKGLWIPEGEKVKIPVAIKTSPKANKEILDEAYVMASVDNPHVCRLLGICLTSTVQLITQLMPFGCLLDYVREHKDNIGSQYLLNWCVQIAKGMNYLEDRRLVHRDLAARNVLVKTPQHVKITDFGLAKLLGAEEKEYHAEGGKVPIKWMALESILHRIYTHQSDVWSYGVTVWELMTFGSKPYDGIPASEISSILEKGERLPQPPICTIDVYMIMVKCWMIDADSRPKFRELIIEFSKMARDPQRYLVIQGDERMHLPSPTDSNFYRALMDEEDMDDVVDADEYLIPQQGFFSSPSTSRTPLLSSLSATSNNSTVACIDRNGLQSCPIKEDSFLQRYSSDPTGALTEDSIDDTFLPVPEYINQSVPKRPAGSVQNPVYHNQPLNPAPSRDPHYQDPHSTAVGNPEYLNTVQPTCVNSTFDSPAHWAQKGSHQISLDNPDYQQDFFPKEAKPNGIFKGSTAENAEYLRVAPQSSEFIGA
T1 sequence (P00533 25-1210): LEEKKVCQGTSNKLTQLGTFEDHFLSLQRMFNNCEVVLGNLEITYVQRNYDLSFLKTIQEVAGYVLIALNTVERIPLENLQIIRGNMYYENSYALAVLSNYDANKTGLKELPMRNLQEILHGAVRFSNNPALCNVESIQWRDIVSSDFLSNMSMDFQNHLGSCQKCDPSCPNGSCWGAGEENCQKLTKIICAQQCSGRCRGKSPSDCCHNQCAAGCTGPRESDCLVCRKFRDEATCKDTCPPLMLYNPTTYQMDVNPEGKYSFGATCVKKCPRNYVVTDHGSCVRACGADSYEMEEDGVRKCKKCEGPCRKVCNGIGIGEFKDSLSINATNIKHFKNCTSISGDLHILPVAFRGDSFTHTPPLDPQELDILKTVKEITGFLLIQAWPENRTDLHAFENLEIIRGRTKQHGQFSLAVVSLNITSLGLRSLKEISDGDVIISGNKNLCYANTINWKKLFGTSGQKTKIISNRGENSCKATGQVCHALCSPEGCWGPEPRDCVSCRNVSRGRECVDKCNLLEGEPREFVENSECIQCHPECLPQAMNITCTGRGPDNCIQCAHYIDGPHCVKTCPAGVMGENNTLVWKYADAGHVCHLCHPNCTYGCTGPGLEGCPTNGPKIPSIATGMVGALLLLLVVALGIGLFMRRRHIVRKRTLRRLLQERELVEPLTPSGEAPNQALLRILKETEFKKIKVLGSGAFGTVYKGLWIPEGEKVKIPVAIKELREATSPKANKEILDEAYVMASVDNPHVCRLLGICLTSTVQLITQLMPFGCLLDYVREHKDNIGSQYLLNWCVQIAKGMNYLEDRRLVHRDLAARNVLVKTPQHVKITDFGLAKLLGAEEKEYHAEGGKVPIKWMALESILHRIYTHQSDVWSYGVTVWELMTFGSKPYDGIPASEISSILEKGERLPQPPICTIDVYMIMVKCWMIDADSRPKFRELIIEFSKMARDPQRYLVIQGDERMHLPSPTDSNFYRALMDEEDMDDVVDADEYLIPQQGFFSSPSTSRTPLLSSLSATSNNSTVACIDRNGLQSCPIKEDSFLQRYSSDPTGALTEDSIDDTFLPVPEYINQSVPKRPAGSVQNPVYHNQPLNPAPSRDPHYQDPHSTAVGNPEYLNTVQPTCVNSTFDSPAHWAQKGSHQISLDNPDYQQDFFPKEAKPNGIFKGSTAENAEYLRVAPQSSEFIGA
T4 sequence (P00533 25-1210 T790M/C797S/L858R): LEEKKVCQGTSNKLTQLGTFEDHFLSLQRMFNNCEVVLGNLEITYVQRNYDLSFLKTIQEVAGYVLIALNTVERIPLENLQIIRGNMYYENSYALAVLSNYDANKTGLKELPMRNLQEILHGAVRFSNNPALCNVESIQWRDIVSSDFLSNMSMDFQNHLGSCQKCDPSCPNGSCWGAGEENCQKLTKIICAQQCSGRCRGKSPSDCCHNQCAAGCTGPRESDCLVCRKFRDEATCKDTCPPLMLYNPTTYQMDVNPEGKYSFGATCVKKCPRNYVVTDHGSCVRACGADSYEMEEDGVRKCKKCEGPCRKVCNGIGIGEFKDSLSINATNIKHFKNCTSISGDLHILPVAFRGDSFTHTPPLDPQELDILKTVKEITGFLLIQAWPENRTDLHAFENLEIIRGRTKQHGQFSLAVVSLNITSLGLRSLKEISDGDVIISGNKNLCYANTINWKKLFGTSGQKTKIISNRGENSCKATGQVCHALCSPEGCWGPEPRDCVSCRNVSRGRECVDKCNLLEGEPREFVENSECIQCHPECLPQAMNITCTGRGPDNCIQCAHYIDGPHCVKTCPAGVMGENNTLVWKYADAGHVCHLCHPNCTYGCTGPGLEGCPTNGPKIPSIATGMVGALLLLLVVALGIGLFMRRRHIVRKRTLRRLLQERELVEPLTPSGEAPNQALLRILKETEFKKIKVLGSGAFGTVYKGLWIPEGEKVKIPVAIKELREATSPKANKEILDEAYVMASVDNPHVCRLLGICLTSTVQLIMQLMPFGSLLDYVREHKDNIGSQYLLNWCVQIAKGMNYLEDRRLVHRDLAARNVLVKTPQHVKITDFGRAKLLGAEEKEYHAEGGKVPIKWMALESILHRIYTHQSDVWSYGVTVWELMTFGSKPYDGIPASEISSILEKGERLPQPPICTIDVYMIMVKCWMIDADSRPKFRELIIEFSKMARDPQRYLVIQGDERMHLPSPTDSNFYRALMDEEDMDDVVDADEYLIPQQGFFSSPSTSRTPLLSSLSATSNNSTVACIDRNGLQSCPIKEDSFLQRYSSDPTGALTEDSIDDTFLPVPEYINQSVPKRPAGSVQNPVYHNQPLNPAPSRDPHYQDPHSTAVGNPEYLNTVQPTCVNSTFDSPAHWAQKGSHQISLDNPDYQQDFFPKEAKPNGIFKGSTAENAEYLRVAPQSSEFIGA

Row | Structure (SMILES) | GI50 (PC-9) [nM] | IC50 (EGFR wild type; [3]) [nM] | IC50 [1, 4] [nM] | IC50 (EGFR Exon19Del/T790M; [5]) [nM] | GI50 [2, 6] [nM] | IC50 (EGFR[T790M/C797S/L858R]; [13]) [nM] | IC50 (EGFR (d746-750 C797S); [14]) [nM] | IC50 (EGFR L858R/T790M; [15]) [nM] | IC50 (EGFR (C797S L858R); [16]) [nM] | IC50 (EGFR L858R; [17]) [nM] | IC50 (EGFR Exon19Del; [18]) [nM] | GI50 (PC-9; Homo sapiens, PC-9, 72 h) [nM] | GI50 [2, 19] [nM] | GI50 [2, 20] [nM] | GI50 [2, 21] [nM] | GI50 [2, 22] [nM] | GI50 [2, 23] [nM] | GI50 [2, 24] [nM] | GI50 [2, 25] [nM] | GI50 (A-431; [26]) [nM] | further results
1 | Cc1cc2cc(n1)-c1cnn(C)c1OCCN1CC3CCC(C3)(C1)n1c(nc3ccc(N4CCN(C5COC5)CC4)cc31)NC2=O (single isomer, unassigned) [Example B58B] | 9 | 2750 | 3.2 | 5.5 | 2 | 3.1 | 4.2 | 5.9 | 33 | 134 | 12 | – | – | – | – | – | – | – | – | – | GI50 [2, 7]: 2 nM; GI50 [2, 8]: 9 nM; GI50 [2, 9]: 2 nM; GI50 [2, 10]: 2 nM; GI50 [2, 11]: 13 nM; GI50 [2, 12]: 2 nM; GI50 (A-431; A-431 cells): 532 nM
2 | Cc1cc2cc(n1)-c1cnn(C)c1OCCN1CC3CCC(C3)(C1)n1c(nc3ccc(N4CC(N5CCOCC5)C4)cc31)NC2=O (single isomer, unassigned) [Example B48A] | 973 | > 5000 | > 5000 | > 5000 | 114 | > 5000 | 1020 | > 5000 | 2920 | > 5000 | 2240 | – | – | – | – | – | – | – | – | – | GI50 [2, 7]: 172 nM; GI50 [2, 8]: 426 nM; GI50 [2, 9]: 34 nM; GI50 [2, 10]: 168 nM; GI50 [2, 11]: 846 nM; GI50 [2, 12]: 140 nM; GI50 (A-431; A-431 cells): 7000 nM
3 | Cc1cc2cc(n1)-c1cnn(C)c1OCCN1CC3CCC(C3)(C1)n1c(nc3ccccc31)NC2=O (stereo not drawn) [Example B8B, 15,21-dimethyl-23-oxa-2,9,11,16,20,21,26-heptaazaheptacyclo[24.4.1.1^{1,28}.1^{13,17}.0^{2,10}.0^{3,8}.0^{18,22}]tritriaconta-3,5,7,9,13,15,17(33),18(22),19-nonaen-12-one] | – | > 5000 | 0.98 | 0.95 | – | 1 | 4.2 | 1.3 | 200 | 469 | 14 | 63 | 4.8 | 2.1 | 53 | 2.4 | 8.6 | 72 | 2.6 | 2710 | –

Continued, in another order:

Row | GI50 (PC-9) [nM] | IC50 (EGFR wild type; [3]) [nM] | IC50 [1, 4] [nM] | IC50 (EGFR Exon19Del/T790M; [5]) [nM] | GI50 [2, 6] [nM] | IC50 (EGFR[T790M/C797S/L858R]; [13]) [nM] | IC50 (EGFR (d746-750 C797S); [14]) [nM] | IC50 (EGFR L858R/T790M; [15]) [nM] | IC50 (EGFR (C797S L858R); [16]) [nM] | IC50 (EGFR L858R; [17]) [nM] | IC50 (EGFR Exon19Del; [18]) [nM] | GI50 (PC-9; Homo sapiens, PC-9, 72 h) [nM] | GI50 [2, 19] [nM] | GI50 [2, 20] [nM] | GI50 [2, 21] [nM] | GI50 [2, 22] [nM] | GI50 [2, 23] [nM] | GI50 [2, 24] [nM] | GI50 [2, 25] [nM] | GI50 (A-431; [26]) [nM] | Structure (SMILES) | further results
4 | – | – | – | – | – | – | – | – | – | – | – | 334 | 30.3 | 326 | 125 | 309 | 658 | 103 | 325 | 8230 | C[C@@H]1CCCOc2cc(F)c(F)cc2-c2cc(cn(C)c2=O)C(=O)Nc2nc3ccc(N4CCN(C)CC4)cc3n2C1 [Example A111, (12R)-4,5-difluoro-12,27-dimethyl-17-(4-methylpiperazin-1-yl)-8-oxa-14,21,23,27-tetraazapentacyclo[23.3.1.0^{2,7}.0^{14,22}.0^{15,20}]nonacosa-1(29),2(7),3,5,15,17,19,21,25-nonaene-24,28-dione] | IC50 (EGFR wild type; EGFR WT, 1 h, room temperature, read-out: IC50 (nM) @WT): 607 nM; IC50 ([1]; EGFR T790M-C797S-Del19, 1 mM ATP, 1 h, room temperature, read-out: IC50 (nM) @T790M - C797S - Del19): 47 nM; IC50 (EGFR Exon19Del/T790M; EGFR Del19-T790M, 1 h, room temperature, read-out: IC50 (nM) @Del19-T790M): 46 nM; IC50 (EGFR[T790M/C797S/L858R]; EGFR T790M-C797S-L858R, 1 h, room temperature, read-out: IC50 (nM) @T790M- C797S - L858R): 63 nM; IC50 (EGFR (d746-750 C797S); EGFR Del19-C797S, 1 h, room temperature, read-out: IC50 (nM) @Del19-C797S): 18 nM; IC50 (EGFR L858R/T790M; EGFR L858R-T790M, 1 h, room temperature, read-out: IC50 (nM) @L858R-T790M): 86 nM; IC50 (EGFR (C797S L858R); EGFR L858-C797S, 1 h, room temperature, read-out: IC50 (nM) @L858-C797S): 40 nM; IC50 (EGFR L858R; 1 h, room temperature, read-out: IC50 (nM) @L858R): 36 nM; IC50 (EGFR Exon19Del; EGFR Del19, 1 mM ATP, 1 h, room temperature): 21 nM
5 | – | > 5000 | 2.6 | 2.5 | – | 3 | 2.3 | 3.9 | 11 | 44 | 3.7 | 12 | 1.4 | 0.56 | 5.6 | 0.38 | 1 | 4 | 0.79 | 1080 | Cc1cc2cc(n1)-c1cnn(C)c1OCCC[C@@H](C)Cn1c(nc3ccc4c(c31)CCN(CCN(C)C)C4)NC2=O [Example B12, (11R)-18-[2-(dimethylamino)ethyl]-5,11,30-trimethyl-7-oxa-4,5,13,18,24,26,31-heptaazahexacyclo[26.3.1.0^{2,6}.0^{13,25}.0^{14,23}.0^{15,20}]dotriaconta-1(31),2(6),3,14,20,22,24,28(32),29-nonaen-27-one] | –
